Measured values taken from ChEMBL document CHEMBL4145491, “Bysspectin A, an unusual octaketide dimer and the precursor derivatives from the endophytic fungus Byssochlamys spectabilis IMM0002 and their biological activities” (Eur J Med Chem, 2018).
Converted amounts (≈) assume the structure as drawn. The source made the active and inactive calls. The rule behind the calls is not given here.

Legend:
[1] = molecular target: T1, Tyrosine-protein phosphatase non-receptor type 1 (Homo sapiens) (UniProt P18031); test: Inhibition of recombinant human GST-tagged PTP1B at 10 uM using p-NPP as substrate after 10 mins by spectrophotometric method
T1 sequence (whole entry): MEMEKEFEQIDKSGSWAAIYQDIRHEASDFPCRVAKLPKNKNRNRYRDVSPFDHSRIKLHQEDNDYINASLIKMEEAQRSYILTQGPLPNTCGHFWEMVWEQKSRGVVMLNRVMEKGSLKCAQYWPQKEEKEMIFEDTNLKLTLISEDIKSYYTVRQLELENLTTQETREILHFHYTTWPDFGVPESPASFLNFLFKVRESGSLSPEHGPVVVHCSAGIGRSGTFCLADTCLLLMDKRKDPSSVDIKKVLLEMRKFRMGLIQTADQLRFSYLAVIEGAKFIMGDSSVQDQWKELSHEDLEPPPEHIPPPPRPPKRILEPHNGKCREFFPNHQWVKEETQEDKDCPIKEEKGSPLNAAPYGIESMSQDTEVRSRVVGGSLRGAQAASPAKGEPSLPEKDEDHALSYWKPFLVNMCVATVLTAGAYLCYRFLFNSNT

Staphylococcus aureus [2] = test: Antibacterial activity against Staphylococcus aureus ATCC 25923 after 24 hrs by broth microdilution method; assay type: functional; settings: ATCC 25923, 24 h
Bel-7402 = test: Cytotoxicity against human Bel7402 cells after 24 hrs by MTT assay; assay type: functional, cell-based
BGC-823 = test: Cytotoxicity against human BGC823 cells after 24 hrs by MTT assay; assay type: functional, cell-based
A549 = test: Cytotoxicity against human A549 cells after 24 hrs by MTT assay; assay type: functional, cell-based
HepG2 = test: Protection against acetaminophen-induced cell injury in human HepG2 cells at 10 uM after 24 hrs by MTT assay; assay type: functional, cell-based
A2780 = test: Cytotoxicity against human A2780 cells after 24 hrs by MTT assay; assay type: functional, cell-based
Peritoneal macrophage = test: Anti-inflammatory activity in C57BL6J mouse peritoneal macrophages assessed as inhibition of LPS-induced TNF-alpha secretion at 10 uM after 24 hrs; assay type: functional, cell-based
Escherichia coli [3] = test: Antibacterial activity against Escherichia coli ATCC 25922 after 24 hrs by broth microdilution method; assay type: functional; settings: ATCC 25922, 24 h
HCT-8 = test: Cytotoxicity against human HCT8 cells after 24 hrs by MTT assay; assay type: functional, cell-based
Liver carboxylesterase 1 = molecular target: T2, Liver carboxylesterase 1 (Homo sapiens, UniProt P23141); test: Inhibition of CE1 in human liver microsomes using D-Luciferin methyl ester as substrate preincubated for 10 mins followed by substrate addition measured after 10 mins by luminescence assay
T2 sequence (P23141 whole entry): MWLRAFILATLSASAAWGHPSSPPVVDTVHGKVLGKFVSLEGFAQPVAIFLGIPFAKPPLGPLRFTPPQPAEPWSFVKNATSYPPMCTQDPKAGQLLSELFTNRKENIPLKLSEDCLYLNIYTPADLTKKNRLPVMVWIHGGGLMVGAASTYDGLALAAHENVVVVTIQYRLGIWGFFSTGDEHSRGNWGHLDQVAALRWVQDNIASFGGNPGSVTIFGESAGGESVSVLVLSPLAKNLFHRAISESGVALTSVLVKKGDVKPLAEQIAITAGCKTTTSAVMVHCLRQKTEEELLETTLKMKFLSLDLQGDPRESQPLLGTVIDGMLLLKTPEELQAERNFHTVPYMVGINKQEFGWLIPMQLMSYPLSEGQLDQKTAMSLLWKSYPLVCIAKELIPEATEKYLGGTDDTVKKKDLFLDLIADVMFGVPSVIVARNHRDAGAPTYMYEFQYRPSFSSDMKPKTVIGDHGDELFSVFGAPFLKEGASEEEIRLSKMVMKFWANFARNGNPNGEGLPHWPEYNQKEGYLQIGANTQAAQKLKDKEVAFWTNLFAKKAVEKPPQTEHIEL

Homo sapiens = species: Homo sapiens; test: Selectivity ratio of IC50 for inhibition of CE1 in human liver microsomes to IC50 for inhibition of CE2 in human liver microsomes
Cocaine esterase [4] = molecular target: T3, Cocaine esterase (Homo sapiens, UniProt O00748); test: Inhibition of CE2 in human liver microsomes using fluorescein diacetate as substrate preincubated for 10 mins followed by substrate addition measured after 20 mins by […] assay
T3 sequence (O00748 whole entry): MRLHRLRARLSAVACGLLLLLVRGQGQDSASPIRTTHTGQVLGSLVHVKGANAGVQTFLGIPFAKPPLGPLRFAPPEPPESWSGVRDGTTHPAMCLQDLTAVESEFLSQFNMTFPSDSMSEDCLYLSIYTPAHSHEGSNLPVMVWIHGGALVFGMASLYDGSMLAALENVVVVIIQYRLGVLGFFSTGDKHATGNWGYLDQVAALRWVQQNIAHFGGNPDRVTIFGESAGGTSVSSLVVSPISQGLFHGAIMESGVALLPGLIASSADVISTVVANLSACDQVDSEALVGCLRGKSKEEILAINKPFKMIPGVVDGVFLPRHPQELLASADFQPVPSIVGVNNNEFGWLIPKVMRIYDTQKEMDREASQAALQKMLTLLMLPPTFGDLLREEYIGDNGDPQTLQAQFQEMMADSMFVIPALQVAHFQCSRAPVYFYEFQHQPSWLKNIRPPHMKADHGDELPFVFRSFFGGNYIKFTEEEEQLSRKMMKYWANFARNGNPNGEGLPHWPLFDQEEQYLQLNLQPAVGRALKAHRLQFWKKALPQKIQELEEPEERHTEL

[5] = tested on: Staphylococcus epidermidis; test: Antibacterial activity against Staphylococcus epidermidis ATCC 12228 after 24 hrs by broth microdilution method; assay type: functional; settings: ATCC 12228, 24 h
Cocaine esterase [6] = molecular target: T3, Cocaine esterase; test: Reversible inhibition of CE2 in human liver microsomes up to 120 uM using fluorescein diacetate as substrate preincubated for 10 mins followed by substrate addition measured after 20 mins by […] assay
[7] = molecular target: T4, CE2 (carboxylesterase 2; cocaine esterase) (Homo sapiens, UniProt O00748); test: Potency index, ratio of loperamide IC50 to compound IC50 for inhibition of CE2 in human liver microsomes; settings: read-out: Ratio IC50
T4 sequence (O00748 whole entry): T3 sequence (O00748 whole entry)

Cocaine esterase [8] = molecular target: T3, Cocaine esterase; test: Competitive inhibition of CE2 in human liver microsomes using fluorescein diacetate as substrate preincubated for 10 mins followed by substrate addition measured after 20 mins by Lineweaver-Burk plot analysis
[9] = tested on: Mycolicibacterium smegmatis; test: Antibacterial activity against Mycobacterium smegmatis MC2 155 ATCC […] after 24 hrs by broth microdilution method; assay type: functional
Staphylococcus aureus [10] = test: Antibacterial activity against Staphylococcus aureus ATCC 25923 at 30 ug/disk; assay type: functional
Candida albicans = test: Anti-fungal activity against Candida albicans at 30 ug/disk; assay type: functional
Escherichia coli [11] = test: Antibacterial activity against Escherichia coli ATCC 25922 at 30 ug/disk; assay type: functional

For `CCCCCCCCCc1cccc(O)c1C=O`, the inhibition [1] was “inactive”, the MIC (Staphylococcus aureus [2]) was 64 µg/mL (≈ 258 µM) and the Activity (Bel-7402) was “inactive”. The Activity (BGC-823) was “inactive”, the Activity (A549) was “inactive” and the Activity (HepG2) was “inactive”. For the same compound, the Activity (A2780) was “inactive”, the inhibition (Peritoneal macrophage) was “inactive” and the MIC (Escherichia coli [3]) was 32 µg/mL (≈ 129 µM). The Activity (HCT-8) was “inactive”.
`O=[N+]([O-])c1ccc(OP(=O)(O)Oc2ccc([N+](=O)[O-])cc2)cc1` showed an IC50 (Liver carboxylesterase 1) of 210 nM.
`CCCCCCCC[C@@H]1OC(=O)c2c(O)cccc21` [PAECILOCIN A] was tested, and the inhibition [1] was “inactive”, the Ratio IC50 (Homo sapiens) was over 4.29 and the IC50 (Liver carboxylesterase 1) was over 100000 nM. For the same compound, the Activity (Bel-7402) was “inactive”, the Activity (BGC-823) was “inactive” and the IC50 (Cocaine esterase [4]) was 23300 nM. For the same compound, the Activity (A549) was “inactive”, the Activity (HepG2) was “inactive” and the Activity (A2780) was “inactive”. For the same compound, the inhibition (Peritoneal macrophage) was “inactive” and the Activity (HCT-8) was “inactive”.
In the case of `CCCCCCCCC(=O)c1cccc(O)c1-c1cc2c(C(=O)CCCCCCCC)cccc2o1`, the inhibition [1] is reported as “inactive”, the MIC [5] is reported as over 128 µg/mL and the Ratio IC50 (Homo sapiens) is reported as over 49.8. For the same compound, the IC50 (Liver carboxylesterase 1) was over 100000 nM, the MIC (Staphylococcus aureus [2]) was over 128 µg/mL and the “inhibition (INH)” value (Cocaine esterase [6]) was “Active”. The selectivity ratio [7] was 2, the Activity (Bel-7402) was “inactive” and the Activity (BGC-823) was “inactive”. The IC50 (Cocaine esterase [4]) was 2010 nM, the Activity (A549) was “inactive” and the Activity (HepG2) was “inactive”. For the same compound, the Activity (A2780) was “inactive”, the inhibition (Peritoneal macrophage) was “inactive” and the MIC (Escherichia coli [3]) was over 128 µg/mL. For the same compound, the Ki (Cocaine esterase [8]) was 2340 nM, the MIC [9] was over 128 µg/mL and the Activity (HCT-8) was “inactive”.
With `CC1(C)S[C@@H]2[C@H](NC(=O)[C@H](N)c3ccccc3)C(=O)N2[C@H]1C(=O)O` [AMPICILLIN] the zone of inhibition at 30 µg/disc (Staphylococcus aureus [10]; read-out: DIZ) was over 20 mm, the “diameter of the inhibition zone (DIZ)” value (Candida albicans) was “inactive” and the zone of inhibition at 30 µg/disc (Escherichia coli [11]; read-out: DIZ) was 16 to 20 mm.
In the case of `C[C@@H]1[C@H](O)[C@@H](C)/C=C/C=C/C=C/C=C/C=C/C=C/C=C/[C@H](O[C@@H]2O[C@H](C)[C@@H](O)[C@H](N)[C@@H]2O)C[C@@H]2O[C@](O)(C[C@@H](O)C[C@@H](O)[C@H](O)CC[C@@H](O)C[C@@H](O)CC(=O)O[C@H]1C)C[C@H](O)[C@H]2C(=O)O` [AMPHOTERICIN B], the “diameter of the inhibition zone (DIZ)” value (Staphylococcus aureus [10]) is reported as “inactive”, the zone of inhibition at 30 µg/disc (Candida albicans; read-out: DIZ) is reported as over 20 mm and the “diameter of the inhibition zone (DIZ)” value (Escherichia coli [11]) is reported as “inactive”.
`C[C@H]1COc2c(N3CCN(C)CC3)c(F)cc3c(=O)c(C(=O)O)cn1c23.C[C@H]1COc2c(N3CCN(C)CC3)c(F)cc3c(=O)c(C(=O)O)cn1c23.O` [LEVOFLOXACIN] showed an MIC (Staphylococcus aureus [2]) of 0.12 µg/mL.
`CCCCCCC/C=C1\OC(=O)c2c(O)cccc21` was tested, and the inhibition [1] was “inactive”, the MIC [5] was over 128 µg/mL and the MIC (Staphylococcus aureus [2]) was over 128 µg/mL. For the same compound, the Activity (Bel-7402) was “inactive”, the Activity (BGC-823) was “inactive” and the Activity (A549) was “inactive”. For the same compound, the Activity (HepG2) was “inactive”, the Activity (A2780) was “inactive” and the inhibition (Peritoneal macrophage) was “inactive”. For the same compound, the MIC (Escherichia coli [3]) was over 128 µg/mL, the MIC [9] was over 128 µg/mL and the Activity (HCT-8) was “inactive”.
